From PMC9619225, “Novel transketolase inhibitor oroxylin A suppresses the non‐oxidative pentose phosphate pathway and hepatocellular carcinoma tumour growth in mice and patient‐derived organoids” (Clinical and Translational Medicine, 2022) come the findings set out here.

Common to all, as to assay type: binding
For one test, the target named is T1, p53 (Homo sapiens, UniProt P04637).
T1 construct: gene TP53
Put plainly: SPR. Background: Surface plasmon resonance follows binding to a sensor surface in real time, without labels.

Test [1] has as its target T2, Transketolase (TKT) (Homo sapiens, UniProt P29401).
T2 sequence (P29401 1-623): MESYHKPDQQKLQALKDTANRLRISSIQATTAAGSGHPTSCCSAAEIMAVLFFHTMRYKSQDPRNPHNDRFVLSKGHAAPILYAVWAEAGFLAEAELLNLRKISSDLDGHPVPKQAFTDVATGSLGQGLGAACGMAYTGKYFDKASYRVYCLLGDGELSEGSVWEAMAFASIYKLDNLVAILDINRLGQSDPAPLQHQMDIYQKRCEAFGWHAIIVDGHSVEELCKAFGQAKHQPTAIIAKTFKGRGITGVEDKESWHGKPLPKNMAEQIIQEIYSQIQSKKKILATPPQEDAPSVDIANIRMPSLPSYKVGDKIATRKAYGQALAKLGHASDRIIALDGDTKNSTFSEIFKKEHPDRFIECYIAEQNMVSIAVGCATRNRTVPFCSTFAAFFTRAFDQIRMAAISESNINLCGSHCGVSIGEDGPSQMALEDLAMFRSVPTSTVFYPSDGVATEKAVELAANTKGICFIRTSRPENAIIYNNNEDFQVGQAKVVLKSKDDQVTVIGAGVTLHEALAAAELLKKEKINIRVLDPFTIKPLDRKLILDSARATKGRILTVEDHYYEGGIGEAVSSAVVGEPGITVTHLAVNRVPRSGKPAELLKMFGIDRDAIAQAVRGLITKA
Put plainly: SPR (Biacore, TKT immobilised on HisCap chip); supported by DARTS, CETSA, TKT-column displacement and enzyme inhibition ([…] at […]). Set-up: Purified human TKT protein.

For test [2], the target named is T2, Transketolase (TKT). Put plainly: competitive displacement chromatography on TKT protein column. More on the design: TKT protein immobilised on silica column.

T1 sequence (P04637 whole entry): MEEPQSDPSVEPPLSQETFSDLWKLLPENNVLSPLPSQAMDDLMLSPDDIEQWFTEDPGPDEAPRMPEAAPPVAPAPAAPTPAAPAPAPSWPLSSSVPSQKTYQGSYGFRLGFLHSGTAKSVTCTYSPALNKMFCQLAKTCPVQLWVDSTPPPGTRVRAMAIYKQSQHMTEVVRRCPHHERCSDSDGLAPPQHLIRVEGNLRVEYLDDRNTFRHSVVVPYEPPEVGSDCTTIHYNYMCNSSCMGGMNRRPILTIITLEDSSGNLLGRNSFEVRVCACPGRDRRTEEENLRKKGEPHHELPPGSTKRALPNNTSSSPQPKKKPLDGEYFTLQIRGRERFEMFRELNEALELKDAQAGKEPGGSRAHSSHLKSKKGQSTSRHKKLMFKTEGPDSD

`COc1c(O)cc2oc(-c3ccccc3)cc(=O)c2c1O` [oroxylin A]: the Kd (in general, the equilibrium constant for the complex coming apart) was determined as 70.7 µM on p53 and 11.9 ± 8.4 µM at Transketolase (TKT) [1]. As to `Cc1ncc(C[n+]2csc(CCO)c2C)c(O)n1` [oxythiamine], the “competitive displacement chromatography on TKT protein column” value on Transketolase (TKT) [2] was “retention time of oxythiamine was markedly decreased with the increased concentration of oroxylin A in mobile phase”.
